Data set [1] in a line: GCase enhancement in brain and spleen after oral dosing over 2 weeks. The data set is classed as in vivo, mice. As to conditions: male, C57BL/6, mouse, brain homogenate as diluted in the GCase assay, po, brain, read-out: Compound concentration in GCase assay. The method, then: The ability of orally administered test compounds ((3R,4R,5S)-5-(difluoromethyl)piperidine-3,4-diol, (3R,4R,5S)-5-(1-fluoroethyl)piperidine-3,4-diol, (3R,4R,5S)-5-((R)-1-fluoropropyl)piperidine-3,4-diol hydrochloride, or (3R,4R,5S)-5-benzylpiperidine-3,4-diol) to elevate GCase levels was assessed in mice. For this purpose, 8-week old wild-type male mice (C57BL/6) were administered a single p.o. (gavage) dose of a compound of the present invention (i.e., (3R,4R,5S)-5-(difluoromethyl)piperidine-3,4-diol, (3R,4R,5S)-5-(1-fluoroethyl)piperidine-3,4-diol, (3R,4R,5S)-5-((R)-1-fluoropropyl)piperidine-3,4-diol hydrochloride, or (3R,4R,5S)-5-benzylpiperidine-3,4-diol). The dosing solutions were prepared in water. Compounds were administered over 2 weeks as follows: week 1, Mon-Fri (On), Sat-Sun (Off); week 2, Mon-Thu (On); necropsy on Friday. Thus, a total of 9 doses (dosing solutions prepared fresh every day) were given to each mouse, with a 24-hour washout between the last dose and necropsy.
Plasma was collected by spinning blood at 2700 g for 10 minutes at 4° C. Liver, spleen, lung, and brain tissues were removed, washed in cold PBS, blotted dry, flash frozen on dry ice, and stored at −80° C. until analysis. GCase levels were measured by homogenizing approximately 50 mg tissue in 500 μL McIlvane (MI) buffer (100 mM sodium citrate, 200 mM sodium phosphate dibasic, 0.25% sodium taurocholate, and 0.1% Triton X-100, pH 5.2) at pH 5.2 for 3-5 seconds on ice with a micro homogenizer. Homogenates were then incubated at room temperature without and with 2.5 mM conduritol-B-epoxide (CBE) for 30 min. Finally, 3.7 mM 4-methylumbeliferryl-β-glucoside (4-MUG) substrate was added and incubated at 37° C. for 60 min. […] Fluorescence was measured on a plate reader for 1 sec/well using 355 nm excitation and 460 nm emission. Total protein was determined in lysates using the MicroBCA kit according to the manufacturer's instructions. A 4-methylumbelliferone (4-MU) standard curve ranging from 1.0 nM to 50 μM was run in parallel for conversion of raw fluorescence data to absolute GCase activity (in the presence and absence of CBE) and expressed as nanomoles of 4-MU released per milligram of protein per hour (nmol/mg protein/hr). GCase levels and protein levels were calculated using Microsoft Excel (Redmond, Wash.) and GraphPad Prism version 4.02.

A short description of data set [2]: Blood brain barrier penetration: plasma and brain levels after single oral dose. Type of data set: in vivo. As to conditions: mice, single 30 mg/kg (free base equivalent) p.o. The method, then:
For this purpose, 8-week old wild-type male mice (C57BL/6) were administered a single 30 mg/kg (free base equivalent) p.o. dose of reference or test compound by gavage (n=3 mice per time point). Dosing solutions were prepared in water. After dosing, mice were euthanized with CO2 at the following time points: 0-, 0.5-, 1-, and 4-hour post-dose. […] Similarly, brains were collected from each mouse. Plasma was derived by spinning whole blood at 2,700×g for 10 minutes at 4° C. followed by storage on dry ice. Whole brains were washed in cold PBS to remove contaminating blood, blotted dry, flash frozen on dry ice, and ultimately stored at −80° C. until analysis. To prepare brain samples for analysis, 50-100 mg of tissue was homogenized in […] of water/mg tissue. Samples were then clarified by centrifugation. Next, 25 μl of the brain homogenate supernatant or 25 μl of plasma were combined with 25 μl of acetonitrile:water (95/5). […] Samples were again clarified by centrifugation and 75 μl of the supernatant was combined with 75 μl of acetonitrile. Samples were then analyzed for compound levels by LC-MS/MS at PPD Inc. (3230 Deming Way, Middleton, Wis. 53562). In brief, a Thermo Betasil, Silica-100, 50×3 mm, 5μ column equilibrated with a mixture of mobile phase consisting of 5 mM ammonium formate and 0.05% formic acid in (A) 95:5 acetonitrile:water or (B) 70:20:10 methanol:water:acetonitrile was employed. Between 20 and 30 μl sample was injected for analysis. For calculating drug concentrations, raw data for plasma (ng/mL) and brain (ng/g) was converted to nM using the molecular weight of respective compounds and assuming 1 g of tissue is equivalent to 1 mL volume. Concentration as a function of time was plotted in GraphPad Prism version 4.02.

The nature of data set [3]: Rat pharmacokinetics. Type of data set: in vivo, rats. As to conditions: for AUC(0-t): AUC0-24 hr. The method, then:
Pharmacokinetic (PK) data was obtained in rats to assess the bioavailability of test compound. In particular, the following PK parameters were calculated: bioavailability as measured by area under the Concentration/Time curve (AUC), fraction of dose available (% F; further defined below), clearance (CL), volume of distribution (Vd), and half-life (t½). […] Three rats were used per dosing group. Blood was collected over a 24-hr period. The time points for blood collection after intravenous administration were: 0, 2.5, 5, 10, 15, 30, 45 min, 1, 2, 4, 8, 12, and 24 hrs; time points for blood collection after p.o. administrations were: 0, 5, 15, 30, 45 min, 1, 2, 3, 4, 8, 12, and 24 hrs. Plasma samples were analyzed for compound levels by LC-MS/MS at PPD. Raw data was analyzed by non-compartmental analysis in Win-nonLin to calculate VD, % F, CL, and t1/2.

Where [4] appears, read: male, Sprague-Dawley, plasma, iv, 3 mg/kg, IV 3 mg/kg free base.

SMILES strings stand for the structures. Counter-ions that a name gives are not always drawn. Like-named read-outs stand apart in the source and are kept apart here.

With `O[C@H]1[C@H](O)CNC[C@@H]1C(F)F` [Compound 6, (3R,4R,5S)-5-(Difluoromethyl)piperdine 3,4-diol Hydrochloride], the concentration at 24 h in data set [1] (10 mg/kg, 10 mg/kg FBE p.o.) was 0.2 nM. Also, the concentration at 24 h in data set [1] (100 mg/kg, 100 mg/kg FBE p.o.) came to 1 nM. Besides, in data set [2], the “blood brain barrier crossing compared to IFG-tartrate” value is “crossed the blood brain barrier more readily as compared to IFG-tartrate” and the “levels detected in brain compared to IFG-tartrate” value is recorded as “higher levels”. In addition, in data set [3], the dose proportionality result is “dose proportionality”, the pharmacokinetic profile result was “favorable pharmacokinetic profiles for drug development” and the volume of distribution entry is recorded as “suggesting adequate penetration into peripheral tissues”. Further, in data set [3] (IV 3 mg/kg free base), the “CL” value came out at 25.92 mL/min/kg, the “Cmax” value was 2323 ng/mL and the “VD” value came out at 2.612 L/kg. In addition, in data set [3] (PO 10 mg/kg free base), the “% F” value came out at 106%, the “Cmax” value came out at 3363 ng/mL and the “t1/2” value stood at 2.58 h. Besides, in data set [3] (PO 30 mg/kg free base), the “% F” value is given as 101%, the “Cmax” value was 10037 ng/mL and the “t1/2” value was determined as 2.75 h. In data set [3] (PO 100 mg/kg free base), the “% F” value is listed as 121%, the “Cmax” value is given as 33200 ng/mL and the “t1/2” value came out at 2.41 h.
On to `CC[C@@H](F)[C@H]1CNC[C@@H](O)[C@@H]1O.Cl` [(3R,4R,5S)-5-((R)-1-fluoropropyl)-piperidine-3,4-diol hydrochloride], for which the concentration at 24 h in data set [1] (100 mg/kg, 100 mg/kg FBE p.o.) worked out at 0.1 nM. Also, in data set [2], the “blood brain barrier crossing compared to IFG-tartrate” value is on record as “crossed the blood brain barrier more readily as compared to IFG-tartrate” and the “levels detected in brain compared to IFG-tartrate” value is given as “higher levels”.
With `CC(F)[C@H]1CNC[C@@H](O)[C@@H]1O` (single isomer, unassigned), the concentration at 24 h in data set [1] (10 mg/kg, 10 mg/kg FBE p.o.) turned out to be 0.2 nM. For the same compound, in data set [2], the “blood brain barrier crossing compared to IFG-tartrate” value was “crossed the blood brain barrier more readily as compared to IFG-tartrate”. Moreover, in data set [2], the “levels detected in brain compared to IFG-tartrate” value is “higher levels”. Further, in data set [3], the dose proportionality entry is recorded as “dose proportionality”. In addition, the pharmacokinetic profile entry in data set [3] is listed as “favorable pharmacokinetic profiles for drug development”. In addition, in data set [3], the volume of distribution entry is listed as “suggesting adequate penetration into peripheral tissues”. Besides, the distribution volume (Vd) in data set [3] (setting [4]) stood at 9.77 ± 1.55 L/kg. In addition, the clearance in data set [3] (setting [4]) is 45.1 mL/min/kg. For the same compound, the area under the curve AUC(0-t) in data set [3] (setting [4]) amounted to 1420 ± 188 ng·h/mL; in data set [3] (male, Sprague-Dawley, plasma, po, 10 mg/kg, PO 10 mg/kg free base), 7100 ± 606 ng·h/mL; in data set [3] (male, Sprague-Dawley, plasma, po, 30 mg/kg, PO 30 mg/kg free base), 21700 ± 1710 ng·h/mL; in data set [3] (male, Sprague-Dawley, plasma, po, 100 mg/kg, PO 100 mg/kg free base), 59500 ± 1000 ng·h/mL. The highest concentration (Cmax) worked out at 2330 ± 373 ng/mL in data set [3] (male, Sprague-Dawley, plasma, iv, 3 mg/kg, IV 3 mg/kg free base, read-out: Cmax); 6920 ± 451 ng/mL in data set [3] (male, Sprague-Dawley, plasma, po, 30 mg/kg, PO 30 mg/kg free base, read-out: Cmax); 19400 ± 3030 ng/mL in data set [3] (male, Sprague-Dawley, plasma, po, 100 mg/kg, PO 100 mg/kg free base, read-out: Cmax). The half-life was 2.6 ± 0.64 h in data set [3] (male, Sprague-Dawley, plasma, iv, 3 mg/kg, IV 3 mg/kg free base, read-out: t1/2 (converted)); 2.8 ± 0.5 h in data set [3] (male, Sprague-Dawley, plasma, po, 10 mg/kg, PO 10 mg/kg free base, read-out: t1/2 (converted)); 2.7 ± 0.12 h in data set [3] (male, Sprague-Dawley, plasma, po, 30 mg/kg, PO 30 mg/kg free base, read-out: t1/2 (converted)); 2.5 ± 0.19 h in data set [3] (male, Sprague-Dawley, plasma, po, 100 mg/kg, PO 100 mg/kg free base, read-out: t1/2 (converted)); 1 to 4 h in data set [3] (male, Sprague-Dawley, plasma, read-out: half-life). This compound also gave a bioavailability in data set [3] (male, Sprague-Dawley, plasma, po, approximately) of 50 to 100%.
On to `O[C@@H]1[C@@H](Cc2ccccc2)CNC[C@H]1O` [(3R,4R,5S)-5-benzyl-piperidine-3,4-diol], for which, in data set [2], the “blood brain barrier crossing compared to IFG-tartrate” value was “crossed the blood brain barrier more readily as compared to IFG-tartrate” and the “levels detected in brain compared to IFG-tartrate” value was “higher levels”. For the same compound, in data set [3], the dose proportionality result is reported as “dose proportionality”, the pharmacokinetic profile result is listed as “favorable pharmacokinetic profiles for drug development” and the volume of distribution result is “suggesting adequate penetration into peripheral tissues”.
